Data as given in patent US8580297B2, “Components for producing amphoteric liposomes” (Marina Biotech, Inc., priority 2002, dated 2013).

Test: Zeta potential profile at varying pH of amphoteric liposomes (zero point = isoelectric point)
Format: physicochemical
Details: liposomes of 2 mg lipid and 10 mg DMPC; buffer 10 mM Kac, 10 mM HEPES, 150 mM NaCl; extruded 200 nm; value is a pH
Protocol: FIG. 1 is a graph showing a profile of the zeta potential in mV at varying pH values for the amphoteric liposomes prepared according to Example 4.
2 mg of the corresponding lipid and 10 mg of DMPC are dissolved in 4 ml of chloroform/methanol (1:1 v/v) and dried completely in a rotary evaporator. The lipid film is hydrated with 4.3 ml of buffer (10 mM Kac, 10 mM HEPES, 150 mM NaCl, pH 7.5) at a lipid concentration of 5 mM using ultrasonic treatment for 5 minutes. Finally, the suspension is frozen and, following thawing, subjected to multiple extrusions (Avestine LiposoFast, polycarbonate filter, pore width 200 nm). The profile of the zeta potential in mV at varying pH values is illustrated in FIG. 1. The zero point indicates the pH value at which the liposome is discharged. This pH corresponds to the isoelectric point of the lipid and is 4.5 for #8, 5.2 for #34, 5.7 for #25.

isoelectric point of the lipid (pH value at which the liposome is discharged, zero point of zeta potential)	Compound
5.7	CCCC(=O)OC(COC(=O)CC)OP(=O)(O)OCCNCCC(=O)NC(Cc1c[nH]cn1)C(=O)O (centres unmarked) [#25, phosphatidyl glycerylcarnosine]
4.5	CCCCCCCC/C=C\CCCCCCCC(=O)OCC(CN(CCC(=O)O)CCC(=O)O)OC(=O)CCCCCCC/C=C\CCCCCCCC (centres unmarked) [#8, N,N-bis(propanoic acid-3-yl)-N-(2,3-dioleoyloxypropyl)amine]
